Data taken from patent US12504371B2, “System and method of dynamic micro-optical coherence tomography for mapping cellular functions” (The General Hospital Corporation, priority 2020, dated 2025).

Tests used:
[1] = system: freshly excised murine liver; assay: d-μOCT imaging of freshly excised murine liver in blebbistatin; format: cell-based; settings: 30 μM blebbistatin, t=40 minutes vs t=0; Red 0-0.08 Hz, Green 3.98-20 Hz
Text: d-μOCT enables high contrast, subcellular, cross-sectional motility imaging of intact human and animal tissues ex vivo. d-μOCT data (FIGS. 7, 9-16) were obtained using a μOCT benchtop system microscope that employs a supercontinuum-illuminated, common path, spectral domain OCT (SDOCT) system to obtain cross-sectional images with a resolution of 2 μm×2 μm (lateral)×1 μm (axial). The depth of focus was 300 μm, extended by annular apodization of the sample arm's objective lens. Images were acquired at an A-line (depth resolved reflectivity profile) rate of 20 KHz and spanned 1 mm laterally. All tissues samples were imaged fresh in culture media (10% FBS/DMEM+1% pen-strep) at 25° C. Two scan modes were used: 1) N=1000 images (512 A-lines/image) acquired sequentially over a period of 25 seconds (FIG. 8, scan mode 1) or 2) N=1000 A-lines acquired sequentially at each lateral scan point (FIG. 8, scan mode 2). Following local elastic unwarping to remove bulk motion caused by evaporation or vibration, a power spectrum estimate (periodogram) was computed on a pixel-per-pixel basis using Welch's method and frequency normalization. For scan mode 1, to represent the data in a single image, low (−0-0.1 Hz), middle (−0.5-0.7 Hz) and high (−4-20 Hz) frequency component images were merged into the RGB channels of a 24-bit color image. […]

MC38 murine tumor = assay: d-μOCT and CC3 IHC of freshly excised MC38 tumor treated with a drug-containing IMD; format: in vivo; settings: IMD containing doxorubicin, 6 hrs; mid frequency Blue 0.47-0.63 Hz
Experimental: Dynamic-μOCT has been applied to human biopsies and chemotherapy-treated tumors grown in mouse models. In human biopsies, it is possible to use d-μOCT to distinguish microscopic features (e.g. cell nuclei, organelles, and cell membranes), cellular structures (e.g. squamous, glandular, inflammatory cells), and different cell types that were not evident in corresponding regular μOCT images. Ex vivo experiments were also performed using tumors grown with human cell lines. Custom microdevices containing small amounts of chemotherapeutic drugs were inserted into the tumors. For example, effects of intra-tumoral apoptosis were distinguished with d-μOCT and confirmed with histology images stained with cleaved caspase-3 (CC3), an apoptosis marker.
Panel (B) is from the same location in the sample. d-μOCT color codes: Red 0-0.08 Hz, Blue 0.47-0.63 Hz, Green 3.98-20 Hz. Bars, 200 μm.
d-μOCT enables high contrast, subcellular, cross-sectional motility imaging of intact human and animal tissues ex vivo. d-μOCT data (FIGS. 7, 9-16) were obtained using a μOCT benchtop system microscope that employs a supercontinuum-illuminated, common path, spectral domain OCT (SDOCT) system to obtain cross-sectional images with a resolution of 2 μm×2 μm (lateral)×1 μm (axial). The depth of focus was 300 μm, extended by annular apodization of the sample arm's objective lens. […]

Structure (SMILES)	change in d-μOCT intracellular motion frequency content [1]	d-μOCT frequency content compared with cleaved caspase-3 (CC3) IHC (MC38 murine tumor)
Cc1ccc2c(c1)C(=O)C1(O)CCN(c3ccccc3)C1=N2 (centres unmarked) [blebbistatin]	dramatic reduction in high frequency (green) and increase in low frequency (red) intracellular motion	
COc1cccc2c1C(=O)c1c(O)c3c(c(O)c1C2=O)C[C@@](O)(C(=O)CO)C[C@@H]3O[C@H]1C[C@H](N)[C@H](O)[C@H](C)O1 [doxorubicin]		diffuse region of mid-frequency content (arrow) that mirrors cleaved caspase-3 (CC3) IHC
